# Measured values from patent publication US20250034586A1, “METHOD FOR EDITING BANANA GENES” (Tropic Biosciences UK Limited, priority 2021, published 2025).
# Key:
# banana ECS = test: CSF selection of embryos from Agrobacterium-transformed banana ECS; type: cell-based; details: after 3 months
# Method: Agrobacterium tumefaciens AGL1 carrying the binary plasmids pMol_0628, pMol_0630, and pMol_0632 were streaked from glycerol in LB solid medium supplemented with rifampicin 50 mg/L, kanamycin 100 mg/L and carbenicillin 50 mg/L and incubated at 28° C. for 2 days. On the second day, the bacteria were inoculated in MG/L medium (discussed in Sarkar et al., Methods Mol Biol. 2013; 966: 187-204) supplemented with the same antibiotics and incubated overnight at 28° C. Next day, the cultures were spun down at 4000 rpm for 10 min to pellet the cells and after they were resuspended in ABIM (Agrobacterium induction media; discussed in Sarkar et al., Methods Mol Biol. 2013; 966: 187-204) to induce virulence and incubated overnight in the dark at room temperature. The OD600 of the bacteria was measured using NanoDrop2000 and normalised to 0.6 in CS liquid media supplemented with acetosyringone (100 μM).
# Banana ECS with 2/3 day-old cells was pelleted and resuspended in CS medium. 0.5 mL of the suspension (approximately 0.1 mL of ECS) was split according to the number of transformations into small Eppendorf tubes. The cells were incubated at 45° C. for 5 min and after they were incubated at room temperature for another 5 min. Then, 1 mL of agrobacterium suspension was added to each banana ECS sample. […]
# [1] = test system: banana embryos or leaf material; test: Comparison of selection using ALS inhibitor, G418 or hygromycin (genotyping of embryos or leaf material); type: cell-based
# From the text: In every case, regenerated material was transformed with constructs containing T-DNA that would generate resistance in positive transformants.
# [2] = test system: banana WT and ALS edited embryos; test: CSF in ECS regeneration, optimisation for edited embryos; type: cell-based; details: 3 months treatment
# Method: Data were obtained for using CSF in ECS regeneration (3 months treatment) for concentrations 0, 25, 50 and 100 μg/L.
# ALS1 or ALS2 = test: Genotyping of CSF-selected samples (PBE experiments); type: cell-based, banana; details: across all experiments, embryos and shoots
# From the text: gDNA from embryos and plantlets was extracted and qPCR was used to test for the presence of integrated tDNA in the plant genome. Three independent qPCRs were run on each sample with different sets of primers (listed below) spanning the tDNA, ranging from the left to right border. An additional qPCR was run on an endogenous banana gene (actin) for normalisation of Ct values. All qPCRs were run on the LightCycler® 96 System (Roche) using PowerUp™ SYBR® Green Master Mix (Thermo Fisher Scientific™).
# For edit validation, amplicons for each target gene (als1, als2, ppo2, aco1) were made using Q5® High-Fidelity 2× Master Mix (New England Biolabs, NEB) using reaction settings listed below. PCR products were purified using Monarch® PCR & DNA Cleanup Kit (NEB) according to manufacturer's specifications. The amplicons were after validated by Sanger sequencing.
# Potato somatic cells = details: cited from earlier work
structure (smiles),measurement,setting,value
"COc1nc(C)nc(NC(=O)NS(=O)(=O)c2ccccc2Cl)n1 [CSF, chlorsulfuron]","Embryos, untransformed cells",banana ECS; CSF 25 μg/L,No
same,"Embryos, untransformed cells",banana ECS; CSF 50 μg/L,No
same,Editing frequency,[1]; CSF selected material,90-94%
same,Efficiency of generating transgenic lines of banana,"[1]; CSF selection, embryos and shoots",75-84%
same,Editing frequency,"[1]; Embryos, CSF selection",57/63 = 90.5%
same,Non-transgenic edited,"[1]; Embryos, CSF selection",19/584 = 3.2%
same,Transgenic frequency,"[1]; Embryos, CSF selection",344/408 = 84.3%
same,Editing frequency,"[1]; Shoots, CSF selection",34/36 = 94.4%
same,Non-transgenic edited,"[1]; Shoots, CSF selection",3/46 = 6.5%
same,Transgenic frequency,"[1]; Shoots, CSF selection",53/70 = 75.7%
same,Frequency of ALS edited embryos recovered after selection,[2]; CSF 25 μg/L,1500 ± 500
same,Frequency of WT embryos recovered after selection,[2]; CSF 25 μg/L,0
same,Frequency of ALS edited embryos recovered after selection,[2]; CSF 50 μg/L,750 ± 250
same,Frequency of WT embryos recovered after selection,[2]; CSF 50 μg/L,0
same,Frequency of ALS edited embryos recovered after selection,[2]; CSF 100 μg/L,0
same,Frequency of WT embryos recovered after selection,[2]; CSF 100 μg/L,0
same,Non-transgenic rate in CSF selected samples,ALS1 or ALS2,> 10%
same,CSF concentration reported to be effective,Potato somatic cells,20 µg/L
